Results as given in the NIST ThermoML archive (doi:10.1021/acs.jced.7b00788).
Numbers after ± are expanded uncertainties.

Test: xn = mol fraction of the nth substance listed
Conditions: 100 kPa, Liquid; for viscosity: Concentric cylinders viscometry; for mass density: Vibrating tube method

CCOP(=O)([O-])OCC.CCn1cc[n+](C)c1 [1-ethyl-3-methylimidazolium diethyl phosphate] + O
Conditions | mass density [kg/m3] | viscosity [mPa·s]
293.15 K, x2 = 0.012 | 1151.2 ± 1.2 | 540 ± 30
293.15 K, x2 = 0.061 | 1151.7 ± 1.1 | 513 ± 28
293.15 K, x2 = 0.123 | 1152.1 ± 1 | 487 ± 26
293.15 K, x2 = 0.183 | 1152.4 ± 1 | 462 ± 25
293.15 K, x2 = 0.259 | 1153 ± 0.9 | 422 ± 22
293.15 K, x2 = 0.502 | 1154.6 ± 0.7 | 202 ± 10
293.15 K, x2 = 0.765 | 1150.2 ± 0.6 | 51.1 ± 2.7
293.15 K, x2 = 0.88 | 1124 ± 1.7 | 12.5 ± 0.9
303.15 K, x2 = 0.012 | 1144.2 ± 1.2 | 274 ± 15
303.15 K, x2 = 0.061 | 1144.7 ± 1.1 | 262 ± 14
303.15 K, x2 = 0.123 | 1145.2 ± 1 | 250 ± 14
303.15 K, x2 = 0.183 | 1145.5 ± 0.9 | 238 ± 13
303.15 K, x2 = 0.259 | 1146.1 ± 0.9 | 219 ± 12
303.15 K, x2 = 0.502 | 1147.8 ± 0.7 | 111 ± 6
303.15 K, x2 = 0.765 | 1143.1 ± 0.6 | 31.2 ± 1.5
303.15 K, x2 = 0.88 | 1116.7 ± 1.4 | 8.35 ± 0.44
313.15 K, x2 = 0.012 | 1137.4 ± 1.2 | 154 ± 8
313.15 K, x2 = 0.061 | 1137.9 ± 1.1 | 148 ± 7
313.15 K, x2 = 0.123 | 1138.4 ± 1 | 141 ± 7
313.15 K, x2 = 0.183 | 1138.7 ± 0.9 | 135 ± 7
313.15 K, x2 = 0.259 | 1139.3 ± 0.9 | 125 ± 6
313.15 K, x2 = 0.502 | 1141.1 ± 0.7 | 65.8 ± 3.1
313.15 K, x2 = 0.765 | 1135.9 ± 0.6 | 20.3 ± 1
313.15 K, x2 = 0.88 | 1109.2 ± 1.4 | 5.91 ± 0.3
323.15 K, x2 = 0.012 | 1130.7 ± 1.2 | 94 ± 4.4
323.15 K, x2 = 0.061 | 1131.2 ± 1.1 | 90.2 ± 4.2
323.15 K, x2 = 0.123 | 1131.7 ± 1 | 86.4 ± 4
323.15 K, x2 = 0.183 | 1132 ± 0.9 | 83.1 ± 3.8
323.15 K, x2 = 0.259 | 1132.6 ± 0.8 | 76.5 ± 3.5
323.15 K, x2 = 0.502 | 1134.3 ± 0.7 | 40.7 ± 1.8
323.15 K, x2 = 0.765 | 1128.6 ± 0.6 | 14 ± 0.6
323.15 K, x2 = 0.88 | 1101.7 ± 1.3 | 4.38 ± 0.22
333.15 K, x2 = 0.012 | 1124.1 ± 1.1 | 61.2 ± 2.8
333.15 K, x2 = 0.061 | 1124.6 ± 1.1 | 58.8 ± 2.6
333.15 K, x2 = 0.123 | 1125 ± 1 | 56.2 ± 2.5
333.15 K, x2 = 0.183 | 1125.4 ± 0.9 | 54.3 ± 2.4
333.15 K, x2 = 0.259 | 1126 ± 0.8 | 49.3 ± 2.2
333.15 K, x2 = 0.502 | 1127.4 ± 0.7 | 27.6 ± 1.2
333.15 K, x2 = 0.765 | 1121.2 ± 0.6 | 10.1 ± 0.5
333.15 K, x2 = 0.88 | 1094 ± 1.3 | 3.36 ± 0.16
343.15 K, x2 = 0.012 | 1117.5 ± 1.1 | 42.1 ± 1.9
343.15 K, x2 = 0.061 | 1118 ± 1.1 | 40.4 ± 1.8
343.15 K, x2 = 0.123 | 1118.4 ± 1 | 38.6 ± 1.7
343.15 K, x2 = 0.183 | 1118.8 ± 0.9 | 37.4 ± 1.6
343.15 K, x2 = 0.259 | 1119.3 ± 0.8 | 34.1 ± 1.5
343.15 K, x2 = 0.502 | 1120.5 ± 0.7 | 19.6 ± 0.8
343.15 K, x2 = 0.765 | 1113.8 ± 0.6 | 7.58 ± 0.33
343.15 K, x2 = 0.88 | 1086.1 ± 1.3 | 2.67 ± 0.13
353.15 K, x2 = 0.012 | 1111 ± 1.1 | 30.2 ± 1.3
353.15 K, x2 = 0.061 | 1111.5 ± 1.1 | 29 ± 1.3
353.15 K, x2 = 0.123 | 1111.9 ± 1 | 27.7 ± 1.2
353.15 K, x2 = 0.183 | 1112.1 ± 0.9 | 26.9 ± 1.2
353.15 K, x2 = 0.259 | 1112.7 ± 0.8 | 24.5 ± 1.1
353.15 K, x2 = 0.502 | 1113.7 ± 0.7 | 14.4 ± 0.6
353.15 K, x2 = 0.765 | 1106.3 ± 0.6 | 5.88 ± 0.25
353.15 K, x2 = 0.88 | 1078.1 ± 1.3 | 2.18 ± 0.1
363.15 K, x2 = 0.012 | 1104.5 ± 1.1 | 22.5 ± 1
363.15 K, x2 = 0.061 | 1104.9 ± 1 | 21.6 ± 0.9
363.15 K, x2 = 0.123 | 1105.2 ± 1 | 20.6 ± 0.9
363.15 K, x2 = 0.183 | 1105.6 ± 0.9 | 20 ± 0.9
363.15 K, x2 = 0.259 | 1106.1 ± 0.8 | 18.3 ± 0.8
363.15 K, x2 = 0.502 | 1106.8 ± 0.7 | 11.2 ± 0.5
363.15 K, x2 = 0.765 | 1098.7 ± 0.6 | 4.69 ± 0.2
363.15 K, x2 = 0.88 | 1070 ± 0.8 | 1.83 ± 0.09
373.15 K, x2 = 0.012 | 1098.2 ± 1.1 | 17.3 ± 0.8
373.15 K, x2 = 0.061 | 1098.5 ± 1 | 16.5 ± 0.7
373.15 K, x2 = 0.123 | 1098.9 ± 1 | 15.8 ± 0.7
373.15 K, x2 = 0.183 | 1099.1 ± 0.9 | 15.3 ± 0.7
373.15 K, x2 = 0.259 | 1099.6 ± 0.8 | 14.1 ± 0.6
373.15 K, x2 = 0.502 | 1099.9 ± 0.7 | 8.9 ± 0.4
373.15 K, x2 = 0.765 | 1091.2 ± 1 | 3.83 ± 0.16
373.15 K, x2 = 0.88 | 1061.9 ± 0.8 | 1.55 ± 0.08
